Reference: US5646149A, “Compounds having both potent calcium antagonist and antioxidant activity and use thereof as cytoprotective agents” (Alcon Laboratories, Inc., priority 1995, dated 1997)
Like-named read-outs stand apart in the source and are kept apart here.

Assays:
[1] = Phospholipid oxidation assay in liposomes; assay type: biochemical
Description: (§1) The DPPH assay is a chemical assay used to determine free radical scavenging activity. The retinal pieces, liver microsomes and phospholipid oxidation models measure antioxidant activity. The calcium binding assay is a measure of the affinity of the compound for a calcium antagonist binding site. The test procedures are described in greater detail below.
Antioxidant activity was measured using a phospholipid oxidation assay. Liposomes formed from dilineoleolyl phosphocholine were exposed to Fe^+3 /EDTA (167 μM) and ascorbate (167 μM). Oxidation was measured by conjugate diene formation monitored using UV spectroscopy (Biochim. Biophys. Acta., volume 1081, pages 181-187, (1991)). The IC50 was calculated using the following non-linear regression algorithm: Y=A/[1+(B/X)^c ], wherein A=maximum, B=IC50 and c=cooperativity or relative broadness of the curves. The minimum was assumed to be zero.

[2] = test system: Liver Microsomes; assay: Liver microsome lipid peroxidation assay; assay type: biochemical
Description: as §1
Antioxidant activity was also measured using a liver microsome assay (Chem. Biol. Interactions., volume 74, pages 233-52, (1990)). Microsomes were incubated in a KPi buffer. Lipid oxidation was initiated with ADP(1 mM)/FeCl3 (10 μM) and NADPH regenerating system, containing NADP^+. The lipid peroxidation was assayed by the TBA test. Malondialdehyde (MDA) was estimated by the formation of thiobarbituric acid-reactive substances. MDA-equivalents were calculated using ε=156 mM^- cm^-1. IC50S were calculated using regression lines.

[3] = value from Free Rad. Res. Comms., volume 15, pages 91-100 (1991); cited from earlier work
[4] = DPPH free radical scavenging assay; conditions: 30 min
Description: as §1
Free radical scavenging activity was determined by measuring the test compound's ability to quench a ethanol solution of the free radical dye, 1,1-diphenyl-2-picrylhydrazyl, (DPPH). Test agents were dissolved in 95% ethanol and were added to a solution of DPPH in 95% ethanol. The final concentration of both the test compound and DPPH was 0.4 mMol. Absorbance was continuously recorded on a Perkin-Elmer Lamba 4B spectrophotometer. The percent quench was measured thirty minutes following the combination of the two solutions. (Free Rad. Res. Comms., volume 15, pages 91-100 (1991)).

[5] = Singlet oxygen quenching; design: key: IA: inactive; conditions: 37° C., ethanol/chloroform (50:50), 5 mM NDPO2
Description: The singlet oxygen quenching activity was studied in the following manner. Singlet oxygen was generated chemically by using thermodissociation of the endoperoxide 3,3'-(1,4-naphthylidene dipropionate), NPDO2. At 37° C., 3 ml ethanol/chloroform (50:50) were placed in a thermosrated cuvette. Reactions were started by injection of 5 mM NDPO2. The singlet oxygen quenching constants were calculated according to Stern-Volmer plots, from S0 /S=1+(Kq+KR)*[Q}*I, where S0, S--chemiluminesence (1270 nm) intensities in absence and in the presence of quenchers, respectively, [Q} is the quencher concentration and I is the lifetime of singlet oxygen (see J. Amer. Chem., volume 111, pages 2904-2914, (1989)).

[6] = test system: bovine retinal pieces; assay: Cytoprotection / lipid peroxidation (TBARS) in bovine retinal pieces after hypoxia-reoxygenation; assay type: cell-based
Description: The DPPH assay is a chemical assay used to determine free radical scavenging activity. The retinal pieces, liver microsomes and phospholipid oxidation models measure antioxidant activity. The calcium binding assay is a measure of the affinity of the compound for a calcium antagonist binding site. The test procedures are described in greater detail below. The cytoprotective effects of the compounds were measured using bovine retinal pieces. […] After 50 minutes of hypoxia, test agents were added to the media to allow 10 minutes for the drug to diffuse into the tissue prior to reoxygenation. Vehicle was added to the non-drug group. Following the incubation period, the tissue was reoxygenated for 1 h. Lipid peroxidation was assessed by the formation of thiobarbituric acid reacting substances (TBARS). The tissues were homogenized and added to TCA-TBA reagent and heated in the presence of BHT. The homogenate was filtered and the absorbance of the supernatant was measured spectrophotometrically. A double derivative technique was used to calculate the concentration of TBARS present in each sample. Quantitation was based on molar extinction coefficient of 1.56×10^5.

[7] = biological target: calcium antagonist binding site; assay: Calcium binding, radioligand (nitrendipine) binding assay in rat brain cortices; conditions: radiolabeled nitrendipine
Description: as §1
Calcium binding was measured using a radioligand binding assay. Brain cortices were removed from rats and a membrane fraction was prepared by standard techniques. The membrane preparation was incubated with radiolabeled nitrendipine. Non-specific binding was estimated in the presence of non-labeled nitrendipine. Membranes were filtered and washed and the filters were counted to determine radiolabelled […] Acad. Sci. USA, volume 79, pages 3656-3660 (1982), Life Sci., volume 30, pages 2191-2202, (1982).

[8] = test system: retinal function of rats; assay: Ocular function by electroretinography after light exposure; assay type: in vivo, rat; conditions: ERG a-wave and b-wave after 48 h light exposure
Description: (§2) The retinoprotective properties of the compounds were measured in a light damage model. Photochemical lesions were induced in free moving unanesthetized albino rats by a single 48 h continuous broad-band florescent visible-light exposure. The rats were dosed by intraperitoneal injection 48 and 24 h prior to exposure, every 24 h during the exposure and once during the 24 h recovery period. Ocular tissues were obtained 24 h after light exposure. The tissues were analyzed using a quantitative computer image analyses system attached to the microscope. Retinal layer thickness, number of macrophages in the subretinal space, number of pyknotic nuclei in the outer nuclear layer, and retinal layer areas were parameters that were measured and statistically analyzed.
Ocular function was measured using electroretinography. Rats were anesthetized after a four-day recovery period in the dark. Flash ERGs were elicited by viewing a ganzfield. Electrical responses to a series of light flashes increasing in intensity were digitized to analyze response voltage-log intensity relationships.
Retinal function was assessed by measuring the electroretinogram after 48 h light exposure. The ERG allows differential examination of photoreceptor activity (a-wave) and inner nuclear layer function (b-wave) which is correlated to retinal morphology change.

[9] = test system: retina of albino rats; assay: Retinal light damage model (photochemical lesions, histology); assay type: in vivo, rat; conditions: intraperitoneal, 48 h light exposure
Description: as §2
Control rats remaining on their normal 12 h light/12 h dark light cycle were devoid of retinal lesions upon microscopic examination and were assessed to have normal retinal function. […] The number of pyknotic photoreceptor nuclei was reduced by 50% in the outer nuclear layer compared to non-dosed animals.

[10] = Fe^+3/EDTA (167 μM) and ascorbate (167 μM), conjugate diene formation, read-out: Phospholipid Oxidation IC50
[11] = Summary of Activity table, read-out: Phosopholipid Oxidation IC50
[12] = ADP (1 mM)/FeCl3 (10 μM), NADPH regenerating system, TBA test
[13] = Summary of Activity table, test compound and DPPH 0.4 mMol
[14] = test compound and DPPH 0.4 mMol in 95% ethanol, thirty minutes
[15] = Summary of Activity table, rat brain cortices, read-out: Ca+2 Binding IC50
[16] = rat brain cortices membrane, read-out: Ca^+2 Binding IC50
[17] = Bos taurus, Summary of Activity table, bovine retinal pieces

| SMILES | IC50 [1, 10] | IC50 [1, 11] | IC50 [2, 12] | IC50 ([2]; Summary of Activity table) | IC50 ([6]; Summary of Activity table, bovine retinal pieces) | IC50 ([6]; bovine retina, hypoxia 1 h, agent added after 50 minutes, reoxygenation 1 h, TBARS) | IC50 [7, 15] | IC50 [7, 16] | IC50 [6, 17] | DPPH (% Quench), literature value [3] | DPPH (% Quench) [4, 13] | DPPH (% Quench) [4, 14] | Singlet Oxygen Quenching Kq [5] | preservation of retinal function (electroretinogram) [8] | Damage to photoreceptor cells [9] | RPE damage [9] | outer and inner segment damage (photoreceptor length) [9] | reduction of number of pyknotic photoreceptor nuclei in the outer nuclear layer ([9]; compared to non-dosed animals) | Macrophages in the subretinal space, compared to control values ([9]; vs control values) | Macrophages in the subretinal space, compared to non-dosed light exposed rats ([9]; vs non-dosed light exposed rats) |
| --- | --- | --- | --- | --- | --- | --- | --- | --- | --- | --- | --- | --- | --- | --- | --- | --- | --- | --- | --- | --- |
| Cc1c(C)c2c(c(C)c1O)CC[C@@](C)(CCC[C@H](C)CCC[C@H](C)CCCC(C)C)O2 [Vitamin E, α-tocopherol] | 4200 nM | 4200 nM | 37000 nM | 37000 nM | 1 nM | 1 nM | – | – | – | 90% | 87% | 87% | 1.2e+08 M⁻¹ s⁻¹ | – | – | – | – | – | – | – |
| Cc1c(C)c2c(c(C)c1O)CCC(C)(CCN1CCN(C(c3ccc(F)cc3)c3ccc(F)cc3)CC1)O2 (stereo not drawn) [Compound No. 1, 1-(4,4'-difluorobenzhydryl)-4-(6-hydroxy-2,5,7,8-tetramethylchroman-2-ethyl)piperazine] | 3600 nM | 3600 nM | 1000 nM | 1000 nM | – | – | 1000 to 10000 nM | 1000 to 10000 nM | 10 nM | – | 99% | 99% | – | Significant preservation of retinal function | significantly minimized | greatly reduced | prevented outer and inner segment damage | 50% | not greater than control values | significantly reduced |
| Cc1cc(C(C)(C)C)c(O)c(C(C)(C)C)c1 [BHT] | 201000 nM | 201000 nM | 1100 nM | 1100 nM | – | – | – | – | 500 nM | – | 64% | 64% | IA | – | – | – | – | – | – | – |

The next lines start with results.

| IC50 [1, 10] | IC50 [1, 11] | IC50 [2, 12] | IC50 ([2]; Summary of Activity table) | IC50 ([6]; Summary of Activity table, bovine retinal pieces) | IC50 ([6]; bovine retina, hypoxia 1 h, agent added after 50 minutes, reoxygenation 1 h, TBARS) | IC50 [7, 15] | IC50 [7, 16] | IC50 [6, 17] | SMILES | DPPH (% Quench), literature value [3] | DPPH (% Quench) [4, 13] | DPPH (% Quench) [4, 14] | Singlet Oxygen Quenching Kq [5] | preservation of retinal function (electroretinogram) [8] | Damage to photoreceptor cells [9] | RPE damage [9] | outer and inner segment damage (photoreceptor length) [9] | reduction of number of pyknotic photoreceptor nuclei in the outer nuclear layer ([9]; compared to non-dosed animals) | Macrophages in the subretinal space, compared to control values ([9]; vs control values) | Macrophages in the subretinal space, compared to non-dosed light exposed rats ([9]; vs non-dosed light exposed rats) |
| --- | --- | --- | --- | --- | --- | --- | --- | --- | --- | --- | --- | --- | --- | --- | --- | --- | --- | --- | --- | --- |
| 180 nM | – | – | – | – | – | 1000 to 10000 nM | 1000 to 10000 nM | 50 nM | Cc1c(C)c2c(c(C)c1O)CCC(C)(CN1CCN(C(c3ccc(F)cc3)c3ccc(F)cc3)CC1)O2 (stereo not drawn) [Compound No. 2, 1-(4,4'-difluorobenzhydryl)-4-(6-hydroxy-2,5,6,8-tetramethylchroman-2-methyl)piperazine dimaleate hemihydrate] | – | 96% | 96% | 1.6e+08 M⁻¹ s⁻¹ | – | – | – | – | – | – | – |
| – | – | 27100 nM | 27100 nM | – | – | – | – | – | Fc1ccc(C(c2ccc(F)cc2)N2CCN(C/C=C/c3ccccc3)CC2)cc1 [Flunarizine] | 10% | – | – | 5e+06 M⁻¹ s⁻¹ | – | – | – | – | – | – | – |
